PubChem BioAssay (NCI)
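Cultured in 96-well plates, cells were exposed to test compound for 48 hours across five concentrations. Here, GI50 denotes the concentration required for 50% inhibition of growth. At the TGI there is no net growth.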

What was measured:
Assay in all cases: NCI anticancer screen, dose series, 48 h
CCRF-CEM leukemia = tested on: CCRF-CEM leukemia
OVCAR-4 ovarian = tested on: OVCAR-4 ovarian
OVCAR-5 ovarian = tested on: OVCAR-5 ovarian
HCC-2998 colon = tested on: HCC-2998 colon
ACHN renal = tested on: ACHN renal
A549 NSCLC = tested on: A549 NSCLC
UO-31 renal = tested on: UO-31 renal
MDA-MB-435 = tested on: MDA-MB-435
U251 CNS = tested on: U251 CNS
K-562 leukemia = tested on: K-562 leukemia
EKVX NSCLC = tested on: EKVX NSCLC
RPMI-8226 leukemia = tested on: RPMI-8226 leukemia
DU-145 prostate = tested on: DU-145 prostate
OVCAR-3 ovarian = tested on: OVCAR-3 ovarian
NCI/ADR-RES ovarian = tested on: NCI/ADR-RES ovarian
NCI-H522 lung = tested on: NCI-H522 lung
PC-3 prostate = tested on: PC-3 prostate
HOP-92 NSCLC = tested on: HOP-92 NSCLC
SNB-19 CNS = tested on: SNB-19 CNS
OVCAR-8 ovarian = tested on: OVCAR-8 ovarian
SF-539 CNS = tested on: SF-539 CNS
SW-620 colon = tested on: SW-620 colon
MDA-MB-231 breast = tested on: MDA-MB-231 breast
SF-268 CNS = tested on: SF-268 CNS
HT29 colon = tested on: HT29 colon
SF-295 CNS = tested on: SF-295 CNS
UACC-257 melanoma = tested on: UACC-257 melanoma
NCI-H460 lung = tested on: NCI-H460 lung
SK-MEL-2 melanoma = tested on: SK-MEL-2 melanoma
NCI-H23 lung = tested on: NCI-H23 lung
TK-10 renal = tested on: TK-10 renal
SK-MEL-28 melanoma = tested on: SK-MEL-28 melanoma
KM12 colon = tested on: KM12 colon
SK-MEL-5 melanoma = tested on: SK-MEL-5 melanoma
M14 melanoma = tested on: M14 melanoma
MOLT-4 leukemia = tested on: MOLT-4 leukemia
HS 578T breast = tested on: HS 578T breast
UACC-62 melanoma = tested on: UACC-62 melanoma
SN12C renal = tested on: SN12C renal
IGROV1 ovarian = tested on: IGROV1 ovarian
RXF 393 renal = tested on: RXF 393 renal
HCT-116 colon = tested on: HCT-116 colon
MCF7 breast = tested on: MCF7 breast
SK-OV-3 ovarian = tested on: SK-OV-3 ovarian
HOP-62 NSCLC = tested on: HOP-62 NSCLC
HCT-15 colon = tested on: HCT-15 colon
T-47D breast = tested on: T-47D breast
CAKI-1 renal = tested on: CAKI-1 renal
NCI-H226 lung = tested on: NCI-H226 lung
786-0 renal = tested on: 786-0 renal
SNB-75 CNS = tested on: SNB-75 CNS
COLO 205 colon = tested on: COLO 205 colon
BT-549 breast = tested on: BT-549 breast
LOX IMVI melanoma = tested on: LOX IMVI melanoma
HL-60(TB) leukemia = tested on: HL-60(TB) leukemia
SR leukemia = tested on: SR leukemia

## O=C1CCS/C(=N/S(=O)(=O)c2ccc(N3N=C4c5ccccc5CC4C3c3cccs3)cc2)N1Cc1ccccc1 (stereo unspecified)
CCRF-CEM leukemia
  GI50: 28 µM
  TGI: 75.7 µM
OVCAR-4 ovarian
  GI50: 49.3 µM
  TGI: > 100 µM
OVCAR-5 ovarian
  GI50: 22.4 µM
  TGI: 44.9 µM
HCC-2998 colon
  GI50: 17.9 µM
  TGI: 33.2 µM
ACHN renal
  GI50: 14.9 µM
  TGI: 32.9 µM
A549 NSCLC
  GI50: 14.4 µM
  TGI: 35.8 µM
UO-31 renal
  GI50: 28.3 µM
  TGI: > 100 µM
MDA-MB-435
  GI50: 21.1 µM
  TGI: 44.6 µM
U251 CNS
  GI50: 14.4 µM
  TGI: 32.1 µM
K-562 leukemia
  GI50: > 100 µM
  TGI: > 100 µM
EKVX NSCLC
  GI50: 25.7 µM
  TGI: 65.8 µM
RPMI-8226 leukemia
  GI50: 18.1 µM
  TGI: > 100 µM
DU-145 prostate
  GI50: 21 µM
  TGI: 52.6 µM
OVCAR-3 ovarian
  GI50: 25.9 µM
  TGI: 60.8 µM
NCI/ADR-RES ovarian
  GI50: 20.8 µM
  TGI: 40.1 µM
NCI-H522 lung
  GI50: 15.9 µM
  TGI: 40 µM
PC-3 prostate
  GI50: 22.4 µM
  TGI: 55.2 µM
HOP-92 NSCLC
  GI50: 35.9 µM
  TGI: 83.7 µM
SNB-19 CNS
  GI50: 22.3 µM
  TGI: 77.7 µM
OVCAR-8 ovarian
  GI50: 19.2 µM
  TGI: 39.3 µM
SF-539 CNS
  GI50: 21.8 µM
  TGI: 44.4 µM
SW-620 colon
  GI50: 24 µM
  TGI: 84.6 µM
MDA-MB-231 breast
  GI50: 21.5 µM
  TGI: 53.7 µM
SF-268 CNS
  GI50: > 100 µM
  TGI: > 100 µM
HT29 colon
  GI50: 37 µM
  TGI: > 100 µM
SF-295 CNS
  GI50: 15.8 µM
  TGI: 37.5 µM
UACC-257 melanoma
  GI50: 24.2 µM
  TGI: 50.7 µM
NCI-H460 lung
  GI50: > 100 µM
  TGI: > 100 µM
SK-MEL-2 melanoma
  GI50: 28 µM
  TGI: > 100 µM
NCI-H23 lung
  GI50: 16.7 µM
  TGI: 31.8 µM
TK-10 renal
  GI50: 17.7 µM
  TGI: 37.6 µM
SK-MEL-28 melanoma
  GI50: 42.1 µM
  TGI: > 100 µM
KM12 colon
  GI50: 17.1 µM
  TGI: 41 µM
SK-MEL-5 melanoma
  GI50: 14.1 µM
  TGI: 28.8 µM
M14 melanoma
  GI50: 15.3 µM
  TGI: 30.1 µM
MOLT-4 leukemia
  GI50: 47 µM
  TGI: > 100 µM
HS 578T breast
  GI50: 23.5 µM
  TGI: 67.2 µM
UACC-62 melanoma
  GI50: 16.7 µM
  TGI: 32.3 µM
SN12C renal
  GI50: 18.5 µM
  TGI: 38.3 µM
IGROV1 ovarian
  GI50: 17.4 µM
  TGI: 52.4 µM
RXF 393 renal
  GI50: 21.2 µM
  TGI: 63.9 µM
HCT-116 colon
  GI50: 20.3 µM
  TGI: 34.5 µM
MCF7 breast
  GI50: > 100 µM
  TGI: > 100 µM
SK-OV-3 ovarian
  GI50: 32.9 µM
  TGI: 79.6 µM
HOP-62 NSCLC
  GI50: 18.6 µM
  TGI: 34 µM
HCT-15 colon
  GI50: 15.9 µM
  TGI: 31.7 µM
T-47D breast
  GI50: 45.6 µM
  TGI: > 100 µM
CAKI-1 renal
  GI50: 24 µM
  TGI: 54.3 µM
NCI-H226 lung
  GI50: 26.5 µM
  TGI: 59.3 µM
786-0 renal
  GI50: 17.1 µM
  TGI: 32.4 µM
SNB-75 CNS
  GI50: 30.2 µM
  TGI: 78.7 µM
COLO 205 colon
  GI50: 36.8 µM
  TGI: > 100 µM
BT-549 breast
  GI50: 26.2 µM
  TGI: 75.2 µM
LOX IMVI melanoma
  GI50: 13.6 µM
  TGI: 27.2 µM

## CC[C@]1(Cc2ccc(OC)c(OC)c2)C=[N+]([O-])O[C@H](OC2CCCC2(c2ccccc2)c2ccccc2)[C@@H]1OC(=O)C(C)(C)C (stereo partly specified)
CCRF-CEM leukemia
  TGI: > 40.3 µM
OVCAR-4 ovarian
  TGI: 14.1 µM
OVCAR-5 ovarian
  TGI: > 39.9 µM
HCC-2998 colon
  TGI: 3.71 µM
ACHN renal
  TGI: 5.25 µM
A549 NSCLC
  TGI: > 36.6 µM
UO-31 renal
  TGI: 3.97 µM
MDA-MB-435
  TGI: 4.12 µM
HL-60(TB) leukemia
  TGI: 8.1 µM
U251 CNS
  TGI: > 55.6 µM
K-562 leukemia
  TGI: > 100 µM
EKVX NSCLC
  TGI: 22.3 µM
DU-145 prostate
  TGI: 4.45 µM
OVCAR-3 ovarian
  TGI: 2.92 µM
NCI/ADR-RES ovarian
  TGI: 5.58 µM
NCI-H522 lung
  TGI: 4.99 µM
PC-3 prostate
  TGI: 14.8 µM
HOP-92 NSCLC
  TGI: 18.2 µM
SNB-19 CNS
  TGI: 30.3 µM
SW-620 colon
  TGI: > 100 µM
MDA-MB-231 breast
  TGI: > 33 µM
SF-268 CNS
  TGI: > 32.5 µM
HT29 colon
  TGI: 4.49 µM
SF-295 CNS
  TGI: 14.8 µM
UACC-257 melanoma
  TGI: 18.7 µM
NCI-H460 lung
  TGI: 6.92 µM
SK-MEL-2 melanoma
  TGI: 7.66 µM
NCI-H23 lung
  TGI: 14.8 µM
TK-10 renal
  TGI: > 25.4 µM
SK-MEL-28 melanoma
  TGI: 4.22 µM
KM12 colon
  TGI: 5.84 µM
SK-MEL-5 melanoma
  TGI: 4.09 µM
M14 melanoma
  TGI: > 40.8 µM
MOLT-4 leukemia
  TGI: > 100 µM
HS 578T breast
  TGI: 28.7 µM
UACC-62 melanoma
  TGI: 17.4 µM
SN12C renal
  TGI: > 22.1 µM
IGROV1 ovarian
  TGI: 9 µM
SR leukemia
  TGI: > 100 µM
RXF 393 renal
  TGI: 3.53 µM
HCT-116 colon
  TGI: 4.58 µM
MCF7 breast
  TGI: > 23.3 µM
SK-OV-3 ovarian
  TGI: > 86.1 µM
HOP-62 NSCLC
  TGI: 6.93 µM
HCT-15 colon
  TGI: 8.97 µM
T-47D breast
  TGI: 7.04 µM
CAKI-1 renal
  TGI: > 100 µM
NCI-H226 lung
  TGI: 12.5 µM
786-0 renal
  TGI: 5.31 µM
SNB-75 CNS
  TGI: 13.4 µM
COLO 205 colon
  TGI: 7.78 µM
BT-549 breast
  TGI: > 44.5 µM
LOX IMVI melanoma
  TGI: 4.18 µM
